Experiments:
[1] = molecular target: T1, human CB2 receptor (Homo sapiens, UniProt P34972); assay: CB2 receptor affinity ([3H]-CP-55,940 displacement); format: binding; conditions: HEK cell membranes, radioligand [3H]-CP-55,940
T1 construct: expressed in transfected cells; host or cells: human embryonic kidney (HEK) cells, Semliki Forest Virus system, membrane preparation
Procedure: (§1) The affinity of the compounds of the invention for cannabinoid CB2 receptors was determined using membrane preparations of human embryonic kidney (HEK) cells in which the human CB2 receptor is transiently transfected using a Semliki Forest Virus system in conjunction with [^3H]-CP-55,940 as radioligand. After incubation of freshly prepared cell membrane preparation with the [^3H]-ligand, with or without addition of compounds of the invention, separation of bound and free ligand was performed by filtration over glass fiber filters. Radioactivity on the filter was measured by scintillation counting.
(§2) The ability of the compounds to displace the radioligand [^3H]-CP-55,940 was measured at a concentration of 10 μM and values provided as [% inhibition @ 10 μM] both for the CB 1 and CB2 receptor assay, The lower % inhibition is, the lower the likelihood of side effects based on CB1 or CB2 receptor inhibition is.

[2] = molecular target: T2, human CB1 receptor (Homo sapiens, UniProt P21554); assay: CB1 receptor affinity ([3H]-CP-55,940 displacement); format: binding; conditions: 10 μM, HEK cell membranes, radioligand [3H]-CP-55,940; read-out: CB1 receptor affinity [% inhibition @ 10 μM]
T2 construct: expressed in transfected cells; host or cells: human embryonic kidney (HEK) cells, Semliki Forest Virus system, membrane preparation
T2 sequence (P21554 whole entry): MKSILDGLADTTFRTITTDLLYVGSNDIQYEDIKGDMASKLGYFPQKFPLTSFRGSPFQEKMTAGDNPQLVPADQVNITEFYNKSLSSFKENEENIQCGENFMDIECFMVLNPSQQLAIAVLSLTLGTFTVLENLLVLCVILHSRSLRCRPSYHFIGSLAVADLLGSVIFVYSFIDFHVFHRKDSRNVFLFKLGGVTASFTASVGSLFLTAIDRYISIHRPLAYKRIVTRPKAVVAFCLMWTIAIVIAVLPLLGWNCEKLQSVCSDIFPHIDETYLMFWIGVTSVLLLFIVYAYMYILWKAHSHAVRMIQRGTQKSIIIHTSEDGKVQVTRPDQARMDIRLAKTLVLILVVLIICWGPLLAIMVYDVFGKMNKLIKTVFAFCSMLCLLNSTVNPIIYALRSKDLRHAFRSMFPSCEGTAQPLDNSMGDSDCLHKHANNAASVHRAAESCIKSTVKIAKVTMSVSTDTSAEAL
Procedure: as §1, with “cannabinoid” for “cannabinoid CB2”, “CB1” for “CB2”, “[3H]-CP-55,940” for “[^3H]-CP-55,940”
as §2

[3] = test system: ABCA1 protein; assay: Detection of upregulation of ABCA1 protein in cells (ApoA-I binding, high content image analysis); format: cell-based; conditions: THP-1 macrophage cells; for % increase of ABCA1 at 3 μM: compound at 3 μM, 24 hrs; for EC50: ABCA1 protein detection assay
Procedure: The ability of compounds of the invention to increase the level of ABCA1 protein is determined in replicate cultures of THP-1 macrophage cells in 96-well microplates. Cells are plated at an initial density of 100,000 cells/well in 100 μl medium and differentiated to adherent macrophages with the addition of PMA (100 nM) for 68 hrs in 10% fetal bovine serum, 3 μl/L of b-mercaptoethanol, RPMI-1640 medium. Then, cells are incubated with RPMI-1640 medium containing 1% FCS, 25 μg/ml acetylated LDL, for 24 hours at 37°. Following incubation with acetylated LDL, cells are washed twice with 50 μl PBS and incubated with 100 μl of RPMI-1640 medium containing the compound of interest solubilized in DMSO for an additional 24 hrs. The final DMSO concentration in presence of cells is maintained at 0.5%. ApoA-I binding assay using High Content Image Analysis is initiated by replacing with fresh medium, RPMI without Phenol Red, 0.2% BSA containing AlexaFluor®647 labeled ApoA-I for 2 h/37° C./5% CO2. Then, cells are fixed with 4% Formaldehyde in PBS (15 min, RT). Following Nuclei are stained with Hoechst solution (3 μM PBS) and Cytoplasm with Cell Mask Blue (2 μg/ml PBS), 15 min, RT. Finally the stained cells are fixed with a second round of formaldehyde treatment. Fixed stained cells are washed and kept in PBS at 4° C. and can be read immediately until one month after preparation.
The Alexa Fluor 647-labeled Apolipoprotein A-I (20 nM) was prepared as follows: Human recombinant Apolipoprotein A-I (ApoA-I) was exchanged to a buffer of 0.02 M NaHCO3 at pH 8.2 on an NAP desalting column (GE Healthcare) and brought to a concentration to 40 μM (1.13 mg/ml) by adjustment with the same buffer. The ApoA-I was fluorescently labeled by incubation with Alexa Fluor carboxylic acid succimidyl ester (Alexa Fluor 647, Invitrogen A-20006) at a 2:1 molar ratio (Alexa to ApoA-I) for 1 h under shaking at RT). The remaining unconjugated label was removed by buffer exchange to 0.02M NaHCO3 at pH 8.2.
Imaging and data collection were performed on an OPERA confocal microplate imaging reader using a 20× water immersion objective and UV360 or 405 laser to identify the cell nuclei and a 635 laser to identify the fluorescent ApoA-I. Eight fields of view are captured per well. Image capture and analysis was performed with the Acapella software. Background fluorescence detected in control wells without ApoA-I was subtracted.
Using XLfit3 program (ID Business Solutions Ltd. UK), the model 205 for Dose Response One Site is used to calculate the EC50 values. […] Particularly, the compounds of the present invention have EC50 values in a range of 0.1 μM to 3 μM.

T1 sequence (P34972 whole entry): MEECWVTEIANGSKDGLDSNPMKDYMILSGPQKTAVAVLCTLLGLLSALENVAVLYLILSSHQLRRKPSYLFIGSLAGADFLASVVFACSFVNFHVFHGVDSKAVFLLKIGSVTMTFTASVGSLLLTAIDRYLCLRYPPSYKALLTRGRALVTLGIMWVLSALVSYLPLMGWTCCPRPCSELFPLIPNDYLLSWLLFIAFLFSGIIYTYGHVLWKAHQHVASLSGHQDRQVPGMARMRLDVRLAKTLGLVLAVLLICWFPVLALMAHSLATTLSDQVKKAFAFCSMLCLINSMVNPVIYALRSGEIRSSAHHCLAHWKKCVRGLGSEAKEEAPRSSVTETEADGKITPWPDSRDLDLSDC

SMILES	inhibition at 10 µM [1] [%]	inhibition at 10 µM [2] [%]	melting point [°C]	% increase of ABCA1 at 3 μM [3] [% @ 3 μM]	EC50 [3] [nM]
CO/N=C1\CCCC[C@@H]1NC(=O)c1cc(-c2ccc(Cl)c(Cl)c2)c(OCC(F)(F)F)nn1 [Example 24, 5-(3,4-Dichloro-phenyl)-6-(2,2,2-trifluoro-ethoxy)-pyridazine-3-carboxylic acid {(S)-2-[(E)-methoxyimino]-cyclohexyl}-amide]	31	22	106 to 109	85	–
CO/N=C1\CCCC[C@@H]1NC(=O)c1cnc(O[C@@H](C)C(F)(F)F)c(-c2ccc(Cl)cc2)c1 [Example 30, 5-(4-Chlorophenyl)-N-((S,E)-2-(methoxyimino)cyclohexyl)-6-((S)-1,1,1-trifluoropropan-2-yloxy)nicotinamide]	12.7	24.1	119 to 121	91.3	180
CO/N=C(/CNC(=O)c1cc(-c2ccc(Cl)c(Cl)c2)c(OCC(F)(F)F)nn1)C1CC1 [Example 23, (E)-N-(2-cyclopropyl-2-(methoxyimino)ethyl)-5-(3,4-dichlorophenyl)-6-(2,2,2-trifluoroethoxy)pyridazine-3-carboxamide]	14	-2	147 to 150	88	540
CO/N=C1\CCCC[C@@H]1NC(=O)c1cnc(O[C@@H](C)C(F)(F)F)c(-c2ccc(Cl)cc2)n1 [Example 27, 6-(4-Chlorophenyl)-N-((S,E)-2-(methoxyimino)cyclohexyl)-5-((S)-1,1,1-trifluoropropan-2-yloxy)pyrazine-2-carboxamide]	21	21	120 to 123	65	–
CO/N=C1\CCCC[C@@H]1NC(=O)c1ncc(O[C@@H](C)C(F)(F)F)c(-c2ccc(Cl)cc2)n1 [Example 28, 4-(4-Chlorophenyl)-N-((S,E)-2-(methoxyimino)cyclohexyl)-5-((S)-1,1,1-trifluoropropan-2-yloxy)pyrimidine-2-carboxamide]	18	34.4	180 to 182	86.5	780

— US8669254B2, “Pyridine, pyridazine, pyrimidine or pyrazine carboxamides as HDL-cholesterol raising agents” (Hoffman-La Roche Inc., priority 2010, dated 2014)
